Molecules are shown by their SMILES. Where a name gives a salt, the structure may show the parent alone. Bounds are passed on as bounds.

The target in this assay is T1, 5-HT4 receptor (Cavia porcellus, UniProt O70528).
T1 construct: striatum was isolated which was cryopreserved at −80° C. until use; from tissue; host or cells: guinea pig (Slc-Hartley) striatum membranes
T1 sequence (O70528 whole entry): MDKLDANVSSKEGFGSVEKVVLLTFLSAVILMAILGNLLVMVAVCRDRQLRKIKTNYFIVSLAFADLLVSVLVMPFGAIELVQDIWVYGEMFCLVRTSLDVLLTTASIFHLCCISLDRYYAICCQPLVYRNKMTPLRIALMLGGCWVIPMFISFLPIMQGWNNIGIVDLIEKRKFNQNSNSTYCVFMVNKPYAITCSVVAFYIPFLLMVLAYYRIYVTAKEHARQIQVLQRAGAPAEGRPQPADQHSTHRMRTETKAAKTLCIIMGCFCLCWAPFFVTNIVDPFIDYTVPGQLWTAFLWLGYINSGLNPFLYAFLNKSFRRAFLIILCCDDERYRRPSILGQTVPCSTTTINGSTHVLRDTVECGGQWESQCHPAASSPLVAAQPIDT
The experiment in a line: Test Example 3: Guinea pig 5-HT4 receptor binding assay, [3H]-GR113808, striatum membranes (Table 98). As to conditions: Guinea pig 5-HT4 receptor binding assay, [3H]-GR113808, striatum membranes; mean value of each group; read-out: IC50. Here is the method:
The guinea pig 5-HT4 receptor binding assay and preparations of receptor membrane preparations herein were carried out according to a method of Grossman et al. [see, British J. Pharmacol., (1993) 109, 618].
Slc-Hartley guinea pigs (body weight 300 g to 400 g) were decapitated to remove brain rapidly, and striatum was isolated which was cryopreserved at −80° C. until use. To the obtained tissues were added fifteen fold of Hepes buffer (50 mM, pH 7.4, 4° C.), and the mixture was homogenized by Teflon (trademark) homogenizer and centrifuged at 48,000×g (4° C.) for 15 minutes. To the resulting precipitate was added Hepes buffer (1 ml) to 30 mg by wet weight of tissues, and the mixture was suspended to give receptor membrane preparations.
To an assay tube were added 0.1 nM [^3H]-GR113808 {chemical name: [1-[2-(methylsulfonylamino) ethyl]-4-piperidinyl]methyl 1-methylindole-3-carboxylate}, receptor membrane preparations, and Hepes buffer (50 mM, pH 7.4, 4° C., 1 ml) containing test compounds or 30 μM serotonin; and the mixture was incubated at 37° C. for 30 minutes. On quenching the reaction, the mixture was rapidly filtered on whatman GF/B filter, which was presoaked in 0.1% polyethyleneimine for 1 hour, by using Brandel cell Harvester, and washed with ice-cooled 50 mM Tris-HCl (pH 7.7, 4 ml) three times. To the filter after filtration was added a liquid scintillator (Ecoscint), and then a radioactivity was determined by a liquid scintillation counter.
50% Inhibition concentrations (IC50) were determined from inhibition rates of test compounds to specific bindings which were obtained by subtracting nonspecific bindings from total binding amounts of [^3H]-GR113808. […]
The IC50 is the point on the concentration scale where inhibition reaches its midpoint. For the molecule `CC(C)c1nn(-c2noc(C3CCN(C4CCCC4)CC3)n2)c2c(F)c(F)ccc12` [Example 452, 1-[5-(1-cyclopentylpiperidin-4-yl)-1,2,4-oxadiazol-3-yl]-6,7-difluoro-3-(propan-2-yl)-1H-indazole trifluoroacetate], the IC50 is under 20 nM.
For `CC(C)c1nn(-c2noc(C3CCN(CC4CCOCC4)CC3)n2)c2c(F)c(F)ccc12` [Example 453, 6,7-difluoro-3-(propan-2-yl)-1-{5-[1-(tetrahydro-2H-pyran-4-ylmethyl)piperidin-4-yl]-1,2,4-oxadiazol-3-yl}-1H-indazole trifluoroacetate] the value was 28.1 nM; for `CC(C)c1nn(-c2noc(C3CCN(C4CCOCC4)CC3)n2)c2c(F)c(F)ccc12` [Example 454, 6,7-difluoro-3-(propan-2-yl)-1-{5-[1-(tetrahydro-2H-pyran-4-yl)piperidin-4-yl]-1,2,4-oxadiazol-3-yl}-1H-indazole trifluoroacetate], under 20 nM.
In the case of `CC(C)c1nn(-c2noc(C3CCN(C4CCOCC4)C3)n2)c2c(F)cccc12` (centres unmarked) [Example 456, 7-fluoro-3-(propan-2-yl)-1-{5-[1-(tetrahydro-2H-pyran-4-yl)pyrrolidin-3-yl]-1,2,4-oxadiazol-3-yl}-1H-indazole] it was under 20 nM; in that of `CC(=O)N1CCC(N2CCC(c3nc(-n4nc(C(C)C)c5ccc(C)cc54)no3)CC2)CC1` [Example 462, 1-(4-{3-[6-methyl-3-(propan-2-yl)-1H-indazol-1-yl]-1,2,4-oxadiazol-5-yl}-1,4′-bipiperidin-1′-yl}ethanone trifluoroacetate], 109 nM; in that of `COCC(=O)N1CCC(N2CCC(c3nc(-n4nc(C(C)C)c5ccc(F)c(F)c54)no3)CC2)CC1` [Example 465, 1-(4-{3-[6,7-difluoro-3-(propan-2-yl)-1H-indazol-1-yl]-1,2,4-oxadiazol-5-yl}-1,4′-bipiperidin-1′-yl)-2-methoxyethanone trifluoroacetate], under 20 nM.
In the case of `CC(C)c1nn(-c2noc(C3CCN(C4CCN(S(C)(=O)=O)CC4)CC3)n2)c2c(F)cccc12` [Example 466, 4-{3-[7-fluoro-3-(propan-2-yl)-1H-indazol-1-yl]-1,2,4-oxadiazol-5-yl}-1′-(methylsulfonyl)-1,4′-bipiperidine trifluoroacetate] it was under 20 nM; in that of `CC(=O)N1CC(CN2CCC(c3nc(-n4nc(C(C)C)c5ccc(C)cc54)no3)CC2)C1` [Example 471, 1-{3-[(4-{3-[6-methyl-3-(propan-2-yl)-1H-indazol-1-yl]-1,2,4-oxadiazol-5-yl}piperidin-1-yl)methyl]azetidin-1-yl}ethanone trifluoroacetate], 173 nM; in that of `CCc1nn(-c2noc(C3CCN(CC4CCN(C(=O)OC)CC4)CC3)n2)c2c(F)c(F)ccc12` [Example 476, methyl 4-({4-[3-(3-ethyl-6,7-difluoro-1H-indazol-1-yl)-1,2,4-oxadiazol-5-yl]piperidin-1-yl}methyl)piperidin-1-carboxylate trifluoroacetate], under 20 nM.
Regarding `CC(=O)N1CCC(CN2CCC(c3nc(-n4nc(C(C)C)c5ccc(C)cc54)no3)CC2)CC1` [Example 479, 1-{4-[(4-{3-[6-methyl-3-(propan-2-yl)-1H-indazol-1-yl]-1,2,4-oxadiazol-5-yl}piperidin-1-yl)methyl]piperidin-1-yl}ethanone trifluoroacetate], the IC50 was 94.6 nM.
In the case of `CC(=O)N1CCC(CN2CCC(c3nc(-n4nc(C(C)C)c5ccc(F)c(F)c54)no3)CC2)CC1` [Example 480, 1-{4-[(4-{3-[6,7-difluoro-3-(propan-2-yl)-1H-indazol-1-yl]-1,2,4-oxadiazol-5-yl}piperidin-1-yl)methyl]piperidin-1-yl}ethanone trifluoroacetate] it was 27.5 nM; in that of `CC(=O)N1CCOC(CN2CCC(c3nc(-n4nc(C(C)C)c5cccc(F)c54)no3)CC2)C1` (centres unmarked) [Example 483, 1-{2-[(4-{3-[7-fluoro-3-(propan-2-yl)-1H-indazol-1-yl]-1,2,4-oxadiazol-5-yl}piperidin-1-yl)methyl]morpholin-4-yl}ethanone], 35.7 nM.
In the case of `COC(=O)N1CCOC(CN2CCC(c3nc(-n4nc(C(C)C)c5cccc(F)c54)no3)CC2)C1` (centres unmarked) [Example 484, methyl 2-[(4-{3-[7-fluoro-3-(propan-2-yl)-1H-indazol-1-yl]-1,2,4-oxadiazol-5-yl}piperidin-1-yl)methyl]morpholine-4-carboxylate] it was 28.1 nM.
For the molecule `CC(C)c1nn(-c2noc(C3CCN(CC4CN(C(=O)N(C)C)CCO4)CC3)n2)c2c(F)cccc12` (centres unmarked) [Example 485, 2-[(4-{3-[7-fluoro-3-(propan-2-yl)-1H-indazol-1-yl]-1,2,4-oxadiazol-5-yl}piperidin-1-yl)methyl]-N,N-dimethylmorpholine-4-carboxamide], the IC50 came to 21.2 nM.
For `CC(C)c1nn(-c2noc(C3CCN(CC4CN(S(C)(=O)=O)CCO4)CC3)n2)c2c(F)cccc12` (centres unmarked) [Example 486, 7-fluoro-1-[5-(1-{[4-(methylsulfonyl)morpholin-2-yl]methyl}piperidin-4-yl)-1,2,4-oxadiazol-3-yl]-3-(propan-2-yl)-1H-indazole] the value was under 20 nM.
In the case of `CC(=O)N1CCC(N2CC[C@H](Cc3nc(-n4nc(C(C)C)c5cccc(F)c54)no3)C2)CC1` [Example 495, 1-{4-[(3R)-3-({3-[7-fluoro-3-(propan-2-yl)-1H-indazol-1-yl]-1,2,4-oxadiazol-5-yl}methyl)pyrrolidin-1-yl]piperidin-1-yl}ethanone] it was under 20 nM; in that of `C=C(C)c1nn(-c2noc(C3CCN(C4CCN(C(=O)CO)CC4)CC3)n2)c2c(F)cccc12` [Example 521, 1-(4-{3-[7-fluoro-3-(prop-1-en-2-yl)-1H-indazol-1-yl]-1,2,4-oxadiazol-5-yl}-1,4′-bipiperidin-1'-yl)-2-hydroxyethanone hydrochloride], 93.7 nM.
In the case of `CC(C)(C)c1nn(-c2noc(C3CCN(C4CCN(C(=O)CO)CC4)CC3)n2)c2ccccc12` [Example 522, 1-{4-[3-(3-tert-butyl-1H-indazol-1-yl)-1,2,4-oxadiazol-5-yl]-1,4′-bipiperidin-1′-yl}-2-hydroxyethanone] it was 222 nM; in that of `CC(C)c1nn(-c2noc(C3CCN(C4CCN(C(=O)CO)CC4)CC3)n2)c2c(F)c(O)ccc12` [Example 552, 1-(4-{3-[7-fluoro-6-hydroxy-3-(propan-2-yl)-1H-indazol-1-yl]-1,2,4-oxadiazol-5-yl}-1,4′-bipiperidin-1′-yl)-2-hydroxyethanone], 179 nM; in that of `CC(C)c1nn(-c2noc(C3CCN(C4CCN(C(=O)CO)CC4)CC3)n2)c2c(F)ccc(O)c12` [Example 553, 1-(4-{3-[7-fluoro-4-hydroxy-3-(propan-2-yl)-1,1′-indazol-1-yl]-1,2,4-oxadiazol-5-yl}-1,4′-bipiperidin-1′-yl)-2-hydroxyethanone], 18.7 nM.
As for `CC(=O)N1CCC(N2CCC(c3nc(-n4nc(C(C)C)c5ccc(O)c(F)c54)no3)CC2)CC1` [Example 554, 1-(4-{3-[7-fluoro-6-hydroxy-3-(propan-2-yl)-1H-indazol-1-yl]-1,2,4-oxadiazol-5-yl}-1,4′-bipiperidin-1′-yl)ethanone], the IC50 stood at 190 nM.
For `CC(=O)N1CCC(N2CCC(c3nc(-n4nc(C(C)C)c5c(O)ccc(F)c54)no3)CC2)CC1` [Example 555, 1-(4-{3-[7-fluoro-4-hydroxy-3-(propan-2-yl)-1H-indazol-1-yl]-1,2,4-oxadiazol-5-yl}-1,4′-bipiperidin-1′-yl)ethanone] the value was 24.9 nM; for `CC(C)c1nn(-c2noc(C3CCN(C4CCN(C(=O)C(=O)O)CC4)CC3)n2)c2c(F)cccc12` [Example 557, potassium (4-{3-[7-fluoro-3-(propan-2-yl)-1H-indazol-1-yl]-1,2,4-oxadiazol-5-yl}-1,4′-bipiperidin-1′-yl)(oxo)acetate], 127 nM; for `CCCCN1CCC(c2cnc(-n3nc(C(C)C)c4cccc(F)c43)[nH]2)CC1` [Example 562, 1-[5-(1-butylpiperidin-4-yl)-1H-imidazol-2-yl]-7-fluoro-3-(propan-2-yl)-1H-indazole], 478 nM.
For `CCCCN1CCC(c2cnc(-n3nc(C(C)C)c4cccc(F)c43)s2)CC1` [Example 563, 1-[5-(1-butylpiperidin-4-yl)-1,3-thiazol-2-yl]-7-fluoro-3-(propan-2-yl)-1H-indazole] the value was 222 nM.
For `CCCCN1CCC(c2ncc(-n3nc(C(C)C)c4cccc(F)c43)s2)CC1` [Example 564, 1-[2-(1-butylpiperidin-4-yl)-1,3-thiazol-5-yl]-7-fluoro-3-(propan-2-yl)-1H-indazole] the value was 653 nM.

The values are drawn from patent US20140057895A1, “INDAZOLE- AND PYRROLOPYRIDINE-DERIVATIVE AND PHARMACEUTICAL USE THEREOF” (priority 2011, published 2014).
